Test [1] can be described thus: Cytotoxicity against human KKU-M156 cells by SRB assay. It counts as functional, cell-based. For orientation: Sulforhodamine B stains cellular protein and so reports cell mass.
Test [2] relates to HepG2. The experiment in a line: Cytotoxicity against human HepG2 cells by SRB assay. The format is functional, cell-based.

With `COc1cc(OC)c(/C=C/[C@H](C)c2c(OC)cc(OC)cc2OC)c(OC)c1`, the IC50 in test [1] and in test [2] was less than 10 µM in each case.

For the compound `COc1cc(OC)c2c(c1)O[C@@H](c1c(O)cc(OC)cc1OC)C[C@@H]2C`, the IC50 in test [1] and in test [2] was less than 10 µM each time.

As to `COc1cc(OC)c2c(c1)O[C@@H](c1c(OC)cc(OC)cc1OC)C[C@@H]2C`, the concentration for half-maximal inhibition (IC50) in test [1] and in test [2] was less than 10 µM in each case.

Take `COc1cc(OC)c([C@H]2CC[C@H]2c2c(OC)cc(OC)cc2OC)c(OC)c1`: the half-inhibitory concentration (IC50) in test [1] and in test [2] was less than 10 µM in each case.

Values taken from ChEMBL document CHEMBL4387793, “Styrenes from the Seeds of Atalantia monophylla” (J Nat Prod, 2019).
